Results reported in patent publication US20070021419A1, “2-Aminophenyl-4-phenylpyrimidines as kinase inhibitors” (Cyclacel Limited, priority 2003, published 2007).

What was measured:
[1] = target: CDK2/cyclin A (Homo sapiens, UniProt P24941); assay: Kinase assay, radioactive phosphate incorporation, CDK2/cyclin A; format: biochemical; details: 100 μM ATP, 30° C.; read-out: Kinase inhibition IC50 CDK2/cyclin A
Procedure: (§1) The compounds from the examples above were investigated for their ability to inhibit the enzymatic activity of various protein kinases. This was achieved by measurement of incorporation of radioactive phosphate from ATP into appropriate polypeptide substrates. Recombinant protein kinases and kinase complexes were produced or obtained commercially. Assays were performed using 96-well plates and appropriate assay buffers (typically 25 mM β-glycerophosphate, 20 mM MOPS, 5 MM EGTA, 1 mM DTT, 1 mM Na3VO3, pH 7.4), into which were added 2-4 μg of active enzyme with appropriate substrates. The reactions were initiated by addition of Mg/ATP mix (15 mM MgCl2+100 μM ATP with 30-50 kBq per well of [γ-^32P]-ATP) and mixtures incubated as required at 30° C. Reactions were stopped on ice, followed by filtration through p81 filterplates or GF/C filterplates (Whatman Polyfiltronics, Kent, UK). After washing 3 times with 75 mM aq orthophosphoric acid, plates were dried, scintillant added and incorporated radioactivity measured in a scintillation counter (TopCount, Packard Instruments, Pangbourne, Berks, UK). Compounds for kinase assay were made up as 10 mM stocks in DMSO and diluted into 10% DMSO in assay buffer.

[2] = target: CDK2/cyclin E (Homo sapiens, UniProt P24941); assay: Kinase assay, radioactive phosphate incorporation, CDK2/cyclin E; format: biochemical; details: 100 μM ATP, 30° C.; read-out: Kinase inhibition IC50 CDK2/cyclin E
Procedure: as §1

[3] = target: CDK4/cyclin D1 (Homo sapiens, UniProt P11802); assay: Kinase assay, radioactive phosphate incorporation, CDK4/cyclin D1; format: biochemical; details: 100 μM ATP, 30° C.; read-out: Kinase inhibition IC50 CDK4/cyclin D1
CDK4/cyclin D1, sequence (P11802 whole entry, species assumed): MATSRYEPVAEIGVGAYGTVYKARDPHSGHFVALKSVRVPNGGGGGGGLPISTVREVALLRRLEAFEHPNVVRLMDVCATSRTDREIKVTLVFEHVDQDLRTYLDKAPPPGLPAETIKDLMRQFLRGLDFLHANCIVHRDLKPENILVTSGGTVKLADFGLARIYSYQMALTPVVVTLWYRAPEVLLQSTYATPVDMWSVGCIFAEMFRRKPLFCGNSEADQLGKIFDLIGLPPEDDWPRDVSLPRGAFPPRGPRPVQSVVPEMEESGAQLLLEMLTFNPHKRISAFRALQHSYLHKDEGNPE
CDK4/cyclin D1, sequence (P24385 whole entry partner, species assumed): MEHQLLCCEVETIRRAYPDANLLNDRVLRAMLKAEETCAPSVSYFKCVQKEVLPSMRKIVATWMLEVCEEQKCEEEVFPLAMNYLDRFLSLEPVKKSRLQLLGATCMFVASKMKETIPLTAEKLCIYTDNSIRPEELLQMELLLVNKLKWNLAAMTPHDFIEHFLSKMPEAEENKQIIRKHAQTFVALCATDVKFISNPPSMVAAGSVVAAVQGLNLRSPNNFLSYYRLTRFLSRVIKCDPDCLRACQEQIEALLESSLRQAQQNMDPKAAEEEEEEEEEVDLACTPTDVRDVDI
Procedure: as §1

[4] = target: CDK7/cyclin H (Homo sapiens, UniProt P50613); assay: Kinase assay, radioactive phosphate incorporation, CDK7/cyclin H; format: biochemical; details: 100 μM ATP, 30° C.; read-out: Kinase inhibition IC50 CDK7/cyclin H
CDK7/cyclin H, sequence (P50613 whole entry, species assumed): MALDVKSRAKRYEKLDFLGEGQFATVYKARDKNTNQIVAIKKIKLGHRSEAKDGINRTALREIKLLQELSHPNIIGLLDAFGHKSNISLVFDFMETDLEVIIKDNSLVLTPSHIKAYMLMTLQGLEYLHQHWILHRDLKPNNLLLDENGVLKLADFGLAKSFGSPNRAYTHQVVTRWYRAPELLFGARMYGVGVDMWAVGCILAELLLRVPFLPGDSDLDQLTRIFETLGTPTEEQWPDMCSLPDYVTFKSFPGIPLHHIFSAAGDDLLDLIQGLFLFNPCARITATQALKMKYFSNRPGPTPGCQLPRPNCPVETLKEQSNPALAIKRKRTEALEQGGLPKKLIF
CDK7/cyclin H, sequence (P51946 whole entry partner, species assumed): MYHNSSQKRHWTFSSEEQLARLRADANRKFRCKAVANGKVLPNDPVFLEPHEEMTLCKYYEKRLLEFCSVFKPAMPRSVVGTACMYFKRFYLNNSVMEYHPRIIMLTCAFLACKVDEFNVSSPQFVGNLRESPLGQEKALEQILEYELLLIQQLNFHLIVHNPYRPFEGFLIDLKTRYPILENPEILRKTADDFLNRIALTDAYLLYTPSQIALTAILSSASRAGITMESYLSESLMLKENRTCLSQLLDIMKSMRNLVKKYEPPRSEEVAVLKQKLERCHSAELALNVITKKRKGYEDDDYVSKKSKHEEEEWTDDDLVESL
Procedure: as §1

[5] = target: CDK9/cyclin T1 (Homo sapiens, UniProt P50750); assay: Kinase assay, radioactive phosphate incorporation, CDK9/cyclin T1; format: biochemical; details: 100 μM ATP, 30° C.; read-out: Kinase inhibition IC50 CDK9/cyclin T1
CDK9/cyclin T1, sequence (P50750 whole entry, species assumed): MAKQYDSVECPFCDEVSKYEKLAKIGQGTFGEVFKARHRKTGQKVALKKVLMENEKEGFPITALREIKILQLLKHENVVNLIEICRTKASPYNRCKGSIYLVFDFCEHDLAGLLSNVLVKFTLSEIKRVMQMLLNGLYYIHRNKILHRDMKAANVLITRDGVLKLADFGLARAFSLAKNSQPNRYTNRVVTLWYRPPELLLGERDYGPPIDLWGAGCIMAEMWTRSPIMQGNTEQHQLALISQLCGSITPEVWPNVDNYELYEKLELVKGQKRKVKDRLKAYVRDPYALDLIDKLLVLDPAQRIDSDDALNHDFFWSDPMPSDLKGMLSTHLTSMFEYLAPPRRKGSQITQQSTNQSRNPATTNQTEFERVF
CDK9/cyclin T1, sequence (O60563 whole entry partner, species assumed): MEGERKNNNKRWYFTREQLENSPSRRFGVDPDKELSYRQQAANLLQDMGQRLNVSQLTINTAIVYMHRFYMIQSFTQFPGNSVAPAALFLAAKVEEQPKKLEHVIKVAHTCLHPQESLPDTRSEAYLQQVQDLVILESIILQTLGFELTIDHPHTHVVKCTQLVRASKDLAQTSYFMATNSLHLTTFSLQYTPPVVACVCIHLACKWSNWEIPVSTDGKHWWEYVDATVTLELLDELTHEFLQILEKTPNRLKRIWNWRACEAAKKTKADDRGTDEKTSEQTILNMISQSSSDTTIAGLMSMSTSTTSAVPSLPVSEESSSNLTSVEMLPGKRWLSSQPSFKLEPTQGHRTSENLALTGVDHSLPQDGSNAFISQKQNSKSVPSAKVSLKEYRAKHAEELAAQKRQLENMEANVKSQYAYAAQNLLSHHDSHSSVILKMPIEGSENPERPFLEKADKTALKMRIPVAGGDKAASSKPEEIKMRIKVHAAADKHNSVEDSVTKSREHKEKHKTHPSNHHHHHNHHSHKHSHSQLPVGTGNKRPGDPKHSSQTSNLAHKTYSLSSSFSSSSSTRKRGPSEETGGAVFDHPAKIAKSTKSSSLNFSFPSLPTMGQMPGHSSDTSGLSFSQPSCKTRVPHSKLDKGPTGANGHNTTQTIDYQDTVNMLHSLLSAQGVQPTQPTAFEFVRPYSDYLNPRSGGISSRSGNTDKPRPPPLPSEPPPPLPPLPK
Procedure: as §1

[6] = target: GSK3β (Homo sapiens, UniProt P49841); assay: Kinase assay, radioactive phosphate incorporation, GSK3β; format: biochemical; details: 100 μM ATP, 30° C.; read-out: Kinase inhibition IC50 GSK3β
GSK3β, sequence (P49841 whole entry, species assumed): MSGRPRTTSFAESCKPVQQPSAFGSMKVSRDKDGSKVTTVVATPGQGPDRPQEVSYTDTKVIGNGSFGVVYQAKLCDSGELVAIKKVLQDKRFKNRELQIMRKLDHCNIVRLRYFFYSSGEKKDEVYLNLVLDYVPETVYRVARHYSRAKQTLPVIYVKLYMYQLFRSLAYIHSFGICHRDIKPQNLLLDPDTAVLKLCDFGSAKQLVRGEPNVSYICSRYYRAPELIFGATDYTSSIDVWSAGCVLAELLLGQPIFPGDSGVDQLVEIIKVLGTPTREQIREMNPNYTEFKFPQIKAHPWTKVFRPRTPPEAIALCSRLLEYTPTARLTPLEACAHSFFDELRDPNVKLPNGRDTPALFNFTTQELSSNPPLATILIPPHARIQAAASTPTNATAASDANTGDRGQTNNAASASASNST
Procedure: as §1

[7] = test system: A549; assay: 72-h MTT cytotoxicity assay, A549; format: cell-based; details: Homo sapiens, read-out: 72-h MTT IC50 A549, A549 cell line
Procedure: (§2) The compounds from the examples above were subjected to a standard cellular proliferation assay using human tumour cell lines obtained from the ATCC (American Type Culture Collection, 10801 University Boulevard, Manessas, Va. 20110-2209, USA). Standard 72-h MTT (thiazolyl blue; 3-[4,5-dimethylthiazol-2-yl]-2,5-diphenyltetrazolium bromide) assays were performed. In short: cells were seeded into 96-well plates according to doubling time and incubated overnight at 37° C. Test compounds were made up in DMSO and a 1/3 dilution series prepared in 100 μL cell media, added to cells (in triplicates) and incubated for 72 ho at 37° C. MTT was made up as a stock of 5 mg/mL in cell media and filter-sterilised. Media was removed from cells followed by a wash with 200 μL PBS. MTT solution was then added at 20 μL per well and incubated in the dark at 37° C. for 4 h. MTT solution was removed and cells again washed with 200 μL PBS. MTT dye was solubilised with 200 μL per well of DMSO with agitation.

[8] = test system: HT29; assay: 72-h MTT cytotoxicity assay, HT29; format: cell-based; details: Homo sapiens, HT-29, read-out: 72-h MTT IC50 HT29, HT29 cell line
Procedure: as §2

[9] = test system: Saos-2; assay: 72-h MTT cytotoxicity assay, Saos-2; format: cell-based; details: Homo sapiens, read-out: 72-h MTT IC50 Saos-2, Saos-2 cell line
Procedure: as §2

[10] = test system: transformed human cell lines (A549, HT29, Saos-2); assay: 72-h MTT cytotoxicity assay, average of cell lines; format: cell-based; details: read-out: 72-h MTT IC50 Average, average of A549, HT29, Saos-2
Procedure: as §2

IC50 [1] [µM] | IC50 [2] [µM] | IC50 [3] [µM] | IC50 [4] [µM] | IC50 [5] [µM] | IC50 [6] [µM] | SMILES | IC50 [7] [µM] | IC50 [8] [µM] | IC50 [9] [µM] | IC50 [10] [µM]
6.5 | 0.57 | 16 | 6 | 2 | 0.18 | O=[N+]([O-])c1cccc(Nc2nccc(-c3cccc(CNCc4ccccc4)c3)n2)c1 [Compound 27, {4-[3-(Benzylamino-methyl)-phenyl]-pyrimidin-2-yl}-(3-nitro-phenyl)-amine] | 14.1 | 4.9 | 43.8 | 20.9 ± 20.3
 | 0.04 |  | 0.57 | 0.002 | 0.019 | O=[N+]([O-])c1cccc(Nc2nccc(-c3cccc(Cn4cncn4)c3)n2)c1 [Compound 30, (3-Nitro-phenyl)-[4-(3-[1,2,4]triazol-1-ylmethyl-phenyl)-pyrimidin-2-yl]-amine] | 8 | 7.1 | 4.4 | 6.5 ± 1.8
 | 4.4 | 2.2 | 4 | 0.42 | 0.37 | c1cc(Cn2cncn2)cc(-c2ccnc(Nc3ccc(N4CCOCC4)cc3)n2)c1 [Compound 32, (4-Morpholin-4-yl-phenyl)-[4-(3-[1,2,4]triazol-1-ylmethyl-phenyl)-pyrimidin-2-yl]-amine] | 19.7 | 6.1 | 40.3 | 22 ± 17.2
2 | 0.14 | 9.1 | 1.1 | 0.092 | 0.12 | Oc1ccc(Nc2nccc(-c3cccc(Cn4cncn4)c3)n2)cc1 [Compound 33, 4-[4-(3-[1,2,4]triazol-1-ylmethyl-phenyl)-pyrimidin-2-ylamino]-phenol] | 10.3 | 20.7 | 7.4 | 12.8 ± 7
3.2 | 0.92 | 0.57 | 0.58 | 0.069 | 0.1 | COc1cccc(Nc2nccc(-c3cccc(Cn4cncn4)c3)n2)c1 [Compound 35, (3-Methoxy-phenyl)-[4-(3-[1,2,4]triazol-1-ylmethyl-phenyl)-pyrimidin-2-yl]-amine] | 15 | 7.7 | 23.2 | 15.3 ± 7.7
3.9 | 0.079 | 4.7 | 0.32 | 0.009 | 0.032 | N#Cc1cccc(Nc2nccc(-c3cccc(Cn4cncn4)c3)n2)c1 [Compound 36, 3-[4-(3-[1,2,4]triazol-1-ylmethyl-phenyl)-pyrimidin-2-ylamino]-benzonitrile] |  |  |  | 
 | 18 |  |  |  |  | c1ccc(Nc2nccc(-c3ccccc3)n2)cc1 [Compound 37, Phenyl-(4-phenyl-pyrimidin-2-yl)-amine] | 22 | 15.2 | 60.7 | 32.6 ± 24.5
 | 3.7 | 1.9 | 1.4 | 0.53 | 0.19 | CN(C)c1ccc(Nc2nccc(-c3cccc(Cn4cncn4)c3)n2)cc1 [Compound 43, N,N-Dimethyl-N′-[4-(3-[1,2,4]triazol-1-ylmethyl-phenyl)-pyrimidin-2-yl]-benzene-1,4-diamine] | 14.9 | 7.8 | 30.9 | 17.9 ± 11.8
 | 17 |  |  |  | 0.49 | COc1ccc(OC)c(-c2ccnc(Nc3cccc([N+](=O)[O-])c3)n2)c1 [Compound 44, [4-(2,5-Dimethoxy-phenyl)-pyrimidin-2-yl]-(3-nitro-phenyl)-amine] | 1.5 | 1.3 | 1 | 1.3 ± 0.3
 | 5.8 | 28 | 16 | 25 | 3.6 | COc1ccc(OC)c(-c2ccnc(Nc3ccc(O)cc3)n2)c1 [Compound 45, 4-[4-(2,5-Dimethoxy-phenyl)-pyrimidin-2-ylamino]-phenol] | 25.9 | 8.1 | 17.4 | 17.1 ± 8.9
 | 1.4 | 28 | 20 | 1.3 | 0.13 | O=[N+]([O-])c1cccc(Nc2nccc(-c3ccc(Cl)c(Cn4cncn4)c3)n2)c1 [Compound 47, [4-(4-Chloro-3-[1,2,4]triazol-1-ylmethyl-phenyl)-pyrimidin-2-yl]-(3-nitro-phenyl)-amine] |  |  |  | 
 | 1.8 | 9.4 | 0.65 | 0.044 | 0.084 | COc1ccc(Nc2nccc(-c3cccc(Cn4cncn4)c3)n2)cn1 [Compound 50, (6-Methoxy-pyridin-3-yl)-[4-(3-[1,2,4]triazol-1-ylmethyl-phenyl)-pyrimidin-2-yl]-amine] | 14.3 | 11.9 | 33.8 | 20 ± 12
 | 7 |  | 28 | 3 | 0.37 | COc1ccc(Nc2nccc(-c3cccc(C#N)c3)n2)cn1 [Compound 51, 3-[2-(6-Methoxy-pyridin-3-ylamino)-pyrimidin-4-yl]-benzonitrile] | 35.7 | 10.3 | 67 | 37.7 ± 28.4
10 |  | 11 | 36 | 0.19 |  | COc1ccc(Nc2nccc(-c3cccc(CN4CCN(C)CC4)c3)n2)cn1 [Compound 58, (6-Methoxy-pyridin-3-yl)-{4-[3-(4-methyl-piperazin-1-ylmethyl)-phenyl]-pyrimidin-2-yl}-amine] | 7 | 5.7 | 9.6 | 7.4 ± 2
0.93 | 0.3 |  | 0.99 | 0.02 | 0.03 | COc1ccc(-c2ccnc(Nc3cccc([N+](=O)[O-])c3)n2)cc1 [Compound 94, [4-(4-Methoxy-phenyl)-pyrimidin-2-yl]-(3-nitro-phenyl)-amine] |  |  |  | 
 |  |  | 1.6 | 2.9 |  | OCC1CCCCN1Cc1cccc(-c2ccnc(Nc3ccc(N4CCOCC4)cc3)n2)c1 (stereo not shown) [Compound 101, (1-{3-[2-(4-Morpholin-4-yl-phenylamino)-pyrimidin-4-yl]-benzyl}-piperidin-2-yl)-methanol] | 17.3 | 6 | 25 | 16.1 ± 9.6
 |  |  | 1.4 | 0.49 |  | COc1ccc(Nc2nccc(-c3cccc(CN4CCCCC4CO)c3)n2)cn1 (stereo not shown) [Compound 102, (1-{3-[2-(6-Methoxy-pyridin-3-ylamino)-pyrimidin-4-yl]-benzyl}-piperidin-2-yl)-methanol] | 17 | 11.1 | 23.4 | 17.2 ± 6.2
 |  |  | 0.64 | 0.14 |  | OCC1CCCCN1Cc1cccc(-c2ccnc(Nc3cccc(O)c3)n2)c1 (stereo not shown) [Compound 103, 3-{4-[3-(2-Hydroxymethyl-piperidin-1-ylmethyl)-phenyl]-pyrimidin-2-ylamino}-phenol] | 6.9 | 7 | 5.6 | 6.5 ± 0.8
1.1 |  | 1.5 |  | 0.02 | 0.09 | COc1ccc(-c2ccnc(Nc3ccc(OC)nc3)n2)cc1 [Compound 124, [4-(4-Methoxy-phenyl)-pyrimidin-2-yl]-(6-methoxy-pyridin-3-yl)-amine] |  |  |  | 
